{
  "source": "patent US20210128528A1",
  "about": "“USE OF 5HT2A INVERSE AGONISTS FOR TREATING PSYCHOSIS” (Axovant Sciences GmbH, priority 2017, published 2021)",
  "key": {"[1]": {"molecular_target": "T1, 5HT2A receptor (h5HT2A-Dx-U2OS cells) (Homo sapiens, UniProt P28223)", "T1 construct": "beta-galactosidase enzyme fragment for complementation (the print says only EFC; from my own knowledge of PathHunter it is the ProLink tag on the receptor's C-terminus); host or cells: U2OS (h5HT2A-Dx-U2OS)", "T1 sequence (P28223 whole entry, the tested form may be a part)": "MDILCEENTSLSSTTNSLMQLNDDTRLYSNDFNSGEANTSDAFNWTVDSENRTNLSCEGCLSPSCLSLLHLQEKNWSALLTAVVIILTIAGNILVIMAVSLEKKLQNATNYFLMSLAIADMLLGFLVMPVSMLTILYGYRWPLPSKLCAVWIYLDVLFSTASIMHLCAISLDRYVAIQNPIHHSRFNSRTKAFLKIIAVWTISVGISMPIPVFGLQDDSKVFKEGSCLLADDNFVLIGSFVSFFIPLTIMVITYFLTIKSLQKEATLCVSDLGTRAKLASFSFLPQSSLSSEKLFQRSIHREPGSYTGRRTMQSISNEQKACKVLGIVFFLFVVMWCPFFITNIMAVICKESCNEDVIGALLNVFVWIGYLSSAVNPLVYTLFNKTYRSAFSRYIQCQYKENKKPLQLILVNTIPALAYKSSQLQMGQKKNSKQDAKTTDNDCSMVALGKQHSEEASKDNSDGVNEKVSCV", "assay": "cell-based", "description": "Cells were incubated with nelotanserin or clozapine for 90 minutes at 37° C. followed by addition of DiscoverX detection reagent for 60 minutes, after which luminescence was measured.\nDrug treatment was performed for 90 minutes at 37 degrees Celsius followed by addition of DiscoverX detection reagent for 60 minutes at room temperature, after which luminescence was measured.\nCells were incubated with nelotanserin or clozapine for 90 minutes at 37° C. followed by addition of DiscoveRx detection reagent for 60 minutes, after which luminescence was measured."}, "[2]": {"tested_on": "C57Bl/6J male mice", "assay": "DOI-induced head twitch response in mice", "format": "in vivo", "conditions": "Mus musculus"}, "[3]": {"tested_on": "C57Bl/6J male mice", "assay": "PCP-induced hyperlocomotion in open field activity monitors", "format": "in vivo", "conditions": "Mus musculus", "description": "PCP-induced hyperlocomotion was measured in open field activity monitor chambers. […] All studies were performed in a blinded and randomized manner and potencies were calculated. Clozapine was used as the basis for comparison.\nThe data depicted in FIGS. 2-5, summarizes Mouse data—Male C57BL6J mice from JAX ˜12 weeks old. Studies were randomized and investigator was blinded. The figures contain three ways of analyzing the data obtained from the Versamax open field activity monitors on the same cohort of mice. The infrared beams in the chambers measure breaks in X, Y, and Z planes. Typically data are reported for Horizontal beam breaks and sometimes for distance travelled and stereotypy in studies involving PCP.\nMale C57BL6 mice from JAX were used at 12-15 weeks of age, n=6 for all conditions). All mice were naïve at the time of testing. […] Mice were then treated with 0.9% saline (i.p.) or PCP (10 mg/kg, i.p.) and monitored for an additional 60 minutes. All measurements were recorded by VersaMax software, and experimenter was blinded to treatment. The summary figure is a compilation of distance travelled over the last 60 minutes with drug treatment. […] Data analyzed via two-way ANOVA followed by Sidak post hoc test to assess statistical differences between animals which received saline of PCP following nelotanserin, clozapine, or vehicle.\nMale C57BL6 mice from JAX were used at 12-15 weeks of age, n=6 for all conditions). All mice were naïve at the time of testing. […] Mice were then treated with 0.9% saline (i.p.) or PCP (10 mg/kg, i.p.) and monitored for an additional 60 minutes. All measurements were recorded by VersaMax software, and experimenter was blinded to treatment. The summary figure is a compilation of the sum of beam breaks (X, Y plane) monitored over the last 60 minutes. […] Data analyzed via two-way ANOVA followed by Sidak post hoc test to assess statistical differences between animals which received saline of PCP following nelotanserin, clozapine, or vehicle.\nMale C57BL6 mice from JAX were used at 12-15 weeks of age, n=6 for all conditions). All mice were naïve at the time of testing. […] Mice were then treated with 0.9% saline (i.p.) or PCP (10 mg/kg, i.p.) and monitored for an additional 60 minutes. All measurements were recorded by VersaMax software, and experimenter was blinded to treatment. The summary figure is a compilation of the sum of beam breaks (X, Y, Z stereotypy measures) monitored over the last 60 minutes. […] Data analyzed via two-way ANOVA followed by Sidak post hoc test to assess statistical differences between animals which received saline of PCP following nelotanserin, clozapine, or vehicle."}, "[4]": {"tested_on": "serotonin-induced intracellular calcium release", "assay": "serotonin-induced intracellular calcium release assay", "format": "cell-based", "conditions": "FIG. 6"}, "[5]": {"molecular_target": "T2, 5HT2C (Homo sapiens, UniProt P28335)", "T2 sequence (P28335 33-458)": "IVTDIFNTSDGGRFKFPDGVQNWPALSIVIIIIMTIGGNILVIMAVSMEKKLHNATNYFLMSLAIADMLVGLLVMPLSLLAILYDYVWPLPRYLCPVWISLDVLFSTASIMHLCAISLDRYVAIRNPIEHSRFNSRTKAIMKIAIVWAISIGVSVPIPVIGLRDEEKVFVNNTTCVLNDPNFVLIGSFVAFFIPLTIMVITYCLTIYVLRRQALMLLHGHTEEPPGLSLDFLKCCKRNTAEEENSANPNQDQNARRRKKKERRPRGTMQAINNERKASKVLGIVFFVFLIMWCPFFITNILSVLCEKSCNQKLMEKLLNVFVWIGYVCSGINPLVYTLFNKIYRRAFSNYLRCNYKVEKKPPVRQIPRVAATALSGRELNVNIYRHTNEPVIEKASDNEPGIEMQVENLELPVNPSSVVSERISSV", "assay": "selectivity of 5HT2A inverse agonist over 5HT2C", "conditions": "5HT2A over 5HT2C"}, "[6]": {"tested_on": "panel of 66 receptors and ion channels", "assay": "panel of 66 receptors and ion channels"}, "[7]": {"conditions": "compound alone, βarrestin2 recruitment"}},
  "data": [
    {"smiles": "NCCc1c[nH]c2ccc(O)cc12", "note": "[Compound 5HT, serotonin, reference compound]", "values": [
      {"measurement": "% Max of 5HT", "setting": "[1]; [7]", "value": 98.20, "unit": "%"}
    ]},
    {"smiles": "COc1ccc(NC(=O)Nc2ccc(F)cc2F)cc1-c1c(Br)cnn1C", "note": "[Nelotanserin, nelotanserin]", "values": [
      {"measurement": "EC50", "setting": "[1]", "value": 3.74, "unit": "nM"},
      {"measurement": "% Max of 5HT", "setting": "[1]; [7]", "value": "−2.21", "unit": "%"},
      {"measurement": "Fold", "setting": "[1]; [7]", "value": 0.90, "unit": "Fold"},
      {"measurement": "IC50", "setting": "[1]; serotonin-induced, h5HT2A-Dx-U2OS cells, 90 minutes at 37° C., read-out: IC50 (SEM), antagonist of the recruitment of β-arrestin 2 to the 5HT2A receptor", "value": 3.74, "unit": "nM"},
      {"measurement": "ED50", "setting": "[2]; read-out: ED50 (95% CL), block of DOI-induced head twitches", "value": 2.4, "unit": "mg/kg"},
      {"measurement": "ED50", "setting": "[2]; read-out: ED 50 (95% confidence limits), DOI-induced head twitch of FIG. 5", "value": 2.4, "unit": "mg/kg"},
      {"measurement": "ED50", "setting": "[3]; ip, 1 h, beam breaks X, Y, Z, nelotanserin 1-10 mg/kg i.p., PCP 10 mg/kg i.p., last 60 minutes, read-out: ED 50 (95% confidence limits), stereotypy counts of FIG. 4", "value": 3.8, "unit": "mg/kg"},
      {"measurement": "ED50", "setting": "[3]; ip, 1 h, horizontal beam breaks (X, Y plane), nelotanserin 1-10 mg/kg i.p., PCP 10 mg/kg i.p., last 60 minutes, read-out: ED 50 (95% confidence limits), beam breaks data of FIG. 3", "value": 4.3, "unit": "mg/kg"},
      {"measurement": "ED50", "setting": "[3]; ip, 1 h, nelotanserin 1-10 mg/kg i.p., PCP 10 mg/kg i.p., last 60 minutes, read-out: ED 50 (95% confidence limits), total distance traveled data of FIG. 2", "value": 3, "unit": "mg/kg"},
      {"measurement": "ED50", "setting": "[3]; i.p., 30 minutes before PCP 10 mg/kg i.p., read-out: ED50 (95% CL), inhibition of PCP-induced hyperlocomotor activity", "value": 3, "unit": "mg/kg"},
      {"measurement": "serotonin-induced intracellular calcium release", "setting": "[4]", "value": "inhibited"},
      {"measurement": "potency relative to pimavanserin or clozapine, intracellular calcium release", "setting": "[4]; serotonin-induced", "value": "about 2 fold"},
      {"measurement": "selectivity over 5HT2C", "setting": "[5]", "value": 80, "unit": "fold"},
      {"measurement": "activity in a panel of 66 receptors and ion channels", "setting": "[6]", "value": "inactive"}
    ]}
  ]
}
